Experimental data reported in EP1383793B1 (priority 2000, dated 2001).
Positions of bridges follow the written chain, without caps; N, C: chain ends. Residues, ends and D or L forms follow the SMILES beside them. *: point of attachment. Biotin = O=C1N[C@H]2[C@H](CS[C@H]2CCCCC(=O)*)N1

What was measured:
[1] = target: T1, IR (Homo sapiens, UniProt P06213); assay: Phage ELISA, binding of phage-displayed peptides to IR; conditions: 405 nm
T1 construct: composed of the extracellular domains of both the α and β chains of the natural receptor; made in house; background b13 names human embryonic kidney 293 cells for the Bass et al. construct
T1 sequence (P06213 28-758 limits assumed): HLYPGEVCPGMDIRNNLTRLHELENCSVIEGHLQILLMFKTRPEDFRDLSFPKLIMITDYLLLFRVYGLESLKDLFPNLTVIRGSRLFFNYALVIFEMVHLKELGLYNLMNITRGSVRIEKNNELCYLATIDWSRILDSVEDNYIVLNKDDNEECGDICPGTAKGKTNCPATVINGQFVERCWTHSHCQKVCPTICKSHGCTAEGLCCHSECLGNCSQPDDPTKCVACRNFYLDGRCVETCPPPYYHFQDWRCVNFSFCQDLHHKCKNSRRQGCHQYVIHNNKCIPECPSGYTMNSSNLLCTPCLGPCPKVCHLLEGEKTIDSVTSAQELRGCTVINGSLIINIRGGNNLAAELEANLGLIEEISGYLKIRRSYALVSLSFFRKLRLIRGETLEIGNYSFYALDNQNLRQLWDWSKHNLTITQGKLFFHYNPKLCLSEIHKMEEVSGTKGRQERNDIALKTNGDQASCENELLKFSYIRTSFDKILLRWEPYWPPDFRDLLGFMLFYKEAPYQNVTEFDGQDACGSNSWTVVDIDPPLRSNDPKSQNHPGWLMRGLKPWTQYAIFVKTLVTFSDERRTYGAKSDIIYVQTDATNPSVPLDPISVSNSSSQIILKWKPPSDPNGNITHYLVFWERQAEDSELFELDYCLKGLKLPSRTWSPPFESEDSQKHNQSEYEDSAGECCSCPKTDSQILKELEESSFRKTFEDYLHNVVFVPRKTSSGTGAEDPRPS
T1 sequence (P06213 763-956 limits assumed): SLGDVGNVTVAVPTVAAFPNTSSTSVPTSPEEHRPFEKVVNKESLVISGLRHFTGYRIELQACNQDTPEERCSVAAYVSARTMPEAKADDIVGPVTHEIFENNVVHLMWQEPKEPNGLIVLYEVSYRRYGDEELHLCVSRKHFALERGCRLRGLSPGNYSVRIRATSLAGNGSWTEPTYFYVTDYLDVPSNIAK

[2] = target: T2, purified insulin receptor (Homo sapiens, UniProt P06213); assay: Holoenzyme phosphorylation assay (IR autophosphorylation, Western blot); type: biochemical
T2 construct: host or cells: 'Wheat Germ Agglutinin Expression System' (so in the source)
T2 sequence (P06213 28-758 limits assumed): as the sequence (P06213 28-758 limits assumed) above
T2 sequence (P06213 763-1382 limits assumed): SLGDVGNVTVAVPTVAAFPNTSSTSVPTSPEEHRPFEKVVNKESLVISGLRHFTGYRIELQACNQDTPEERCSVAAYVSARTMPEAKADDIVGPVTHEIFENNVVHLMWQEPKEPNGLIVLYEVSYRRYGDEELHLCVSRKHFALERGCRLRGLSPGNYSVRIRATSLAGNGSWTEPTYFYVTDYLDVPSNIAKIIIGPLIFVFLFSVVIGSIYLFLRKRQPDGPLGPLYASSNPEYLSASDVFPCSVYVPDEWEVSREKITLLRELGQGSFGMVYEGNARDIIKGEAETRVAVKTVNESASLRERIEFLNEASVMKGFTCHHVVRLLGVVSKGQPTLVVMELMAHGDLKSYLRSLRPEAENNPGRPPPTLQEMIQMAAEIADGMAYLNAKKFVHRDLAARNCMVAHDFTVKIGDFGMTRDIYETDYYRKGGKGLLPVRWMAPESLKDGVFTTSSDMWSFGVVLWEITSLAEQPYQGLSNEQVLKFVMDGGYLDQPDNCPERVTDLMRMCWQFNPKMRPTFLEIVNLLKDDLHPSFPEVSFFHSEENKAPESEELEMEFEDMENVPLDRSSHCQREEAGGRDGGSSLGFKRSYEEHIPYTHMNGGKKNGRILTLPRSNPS
Procedure: Alternatively, IR autophosphorylation was determined using a holoenzyme phosphorylation assay. […] The reaction was stopped by adding 50 µl of gel loading buffer containing β-mercaptoethanol (Bio-Rad Laboratories, Inc., Hercules, CA). The samples were run on 4-12% SDS-polyacrylamide gels. Western Blot analysis was performed by transferring the proteins onto nitrocellulose membrane. The membrane was blocked in PBS containing 3% milk overnight. The membrane was incubated with anti-phosphotyrosine 4G10 HRP labeled antibody (Upstate Biotechnology) for 2 h. Protein bands were visualized using SuperSignal West Dura Extended Duration Substrate Chemiluminescence Detection System (Pierce Chemical Co.).

[3] = target: T3, Insulin receptor (Homo sapiens, UniProt P06213); assay: BIAcore competition: IR pre-incubated with test substance, injected over immobilised insulin; type: binding; conditions: peptide about 40 µM, IR 450 nM; IR alone 128 RU
T3 construct: composed of the extracellular domains of both the α and β chains of the natural receptor; made in house; background b13 names human embryonic kidney 293 cells for the Bass et al. construct
T3 sequence (P06213 28-758 limits assumed): as the sequence (P06213 28-758 limits assumed) above
T3 sequence (P06213 763-956 limits assumed): as the sequence (P06213 763-956 limits assumed) above
Procedure: Flowcell-1 was used for background binding to correct for any non-specific binding. […] The surface was regenerated with 25 mM NaOH. […] Thus, the system was validated for competition studies. […] The amino acid sequences referred to in the tables are identified in Figures 47 and 48, except the 447 and 2A9 sequences, which are shown below. TABLE 9: BIAcore Results-Fusion Proteins Compete for Binding to IR

[4] = target: T4, IGF-1R (Homo sapiens, UniProt P08069); assay: IGF-1R peptide assay, competition dissociation of 20E2; type: binding; conditions: peptides 100 µM, IGF-1 30 µM
T4 construct: Soluble IGF-1R was obtained from R&D Systems; purchased R&D Systems 391-GR/CF
T4 sequence (P08069 31-736 limits assumed): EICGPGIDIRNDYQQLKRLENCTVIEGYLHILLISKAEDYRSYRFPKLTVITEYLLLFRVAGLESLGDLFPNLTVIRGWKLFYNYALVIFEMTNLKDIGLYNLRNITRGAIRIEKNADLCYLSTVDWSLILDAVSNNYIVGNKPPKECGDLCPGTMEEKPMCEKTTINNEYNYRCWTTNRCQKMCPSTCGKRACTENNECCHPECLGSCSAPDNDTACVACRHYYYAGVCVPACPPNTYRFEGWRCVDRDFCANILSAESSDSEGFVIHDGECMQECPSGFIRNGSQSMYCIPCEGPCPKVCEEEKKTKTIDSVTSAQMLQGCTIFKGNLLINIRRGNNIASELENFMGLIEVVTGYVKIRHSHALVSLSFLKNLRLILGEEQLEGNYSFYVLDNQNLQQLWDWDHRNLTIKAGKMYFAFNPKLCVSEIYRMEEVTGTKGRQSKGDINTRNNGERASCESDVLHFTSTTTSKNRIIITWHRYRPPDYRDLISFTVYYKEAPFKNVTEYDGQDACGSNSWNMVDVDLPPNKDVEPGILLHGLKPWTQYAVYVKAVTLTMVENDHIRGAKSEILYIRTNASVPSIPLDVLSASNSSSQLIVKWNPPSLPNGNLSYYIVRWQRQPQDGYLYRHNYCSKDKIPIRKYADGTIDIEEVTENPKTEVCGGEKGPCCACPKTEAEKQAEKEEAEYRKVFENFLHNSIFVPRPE
T4 sequence (P08069 741-935 limits assumed): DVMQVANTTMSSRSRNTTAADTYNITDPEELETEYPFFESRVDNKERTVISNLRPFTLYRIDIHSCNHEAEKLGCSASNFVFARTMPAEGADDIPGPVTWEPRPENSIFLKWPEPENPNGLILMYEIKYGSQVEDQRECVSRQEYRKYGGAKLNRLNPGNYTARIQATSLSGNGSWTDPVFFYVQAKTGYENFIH
Procedure: • a. Preparation of the Assay Mix. […] This mixture was allowed to pre-incubate. • b. 20 µl of Competitor and Buffer were added to a 96-well microtiter plate (Costar Cat. #3912). • c. […] After the original 99 repeat readings were taken, periodic readings were taken until equilibrium had been established. NOTE: Different conditions can be used for these experiments. For example, a 1.1X concentration of assay mix can be initially made. Then first add 10 µl of Competitor and Buffer to the microtiter plate followed by 90 µl of the Assay Mix. • f.

[5] = test system: adipocytes; assay: 3H-glucose uptake into adipocytes (fat cell assay, FFC); type: cell-based, Mouse; conditions: Subjective ranking; basal and sub maximal insulin; includes series A
[6] = target: T4, IGF-1R; assay: Phage ELISA, binding of phage-displayed peptides to IGF-1R; conditions: 405 nm
Procedure: Figures 1A-10G. Amino acid sequences comprising the motif of Formulas 1 through 10. […] One hundred microliters of this solution was added to an appropriate number of wells in a 96-well microtiter plate (MaxiSorp plates, Nunc) and incubated overnight at 4°C. […] Subsequent steps are the same for pooled and clonal phage. […] Phage resuspended in MPBS were added to duplicate wells (100 µl/well) and incubated at RT for 1 h. […] Incubation was for 1 h at RT, followed by PBS washes as described. […] Phage ELISA. […] The wells were blocked with 200 µl of MPBS for 1.5 h at RT. Phage were added at 100 µl per well. Peptides were added as noted below and allowed to incubate at RT for 3 h. The plates were washed 3 times with PBST. A solution of 1:3000 diluted HRP:Anti-M13 conjugate at 100 µl per well of was added for 1 h. Following a repeat of the washing, 100 µl of ABTS was added for 15-30 min. […] Phage ELISA. […] Phage were added at 100 µl per well. Peptides were added as noted below and allowed to incubate at RT for 3 h. The plates were washed 3X with PBST. A solution of 1:3000 diluted HRP:Anti-M13 Conjugate at 100 µl per well of was added for 1 h. Following a repeat of the washing, 100 µl of ABTS was added for 15-30 min. The OD405 was measured using a SpectraMax 340 Microplate Spectrophotometer.

[7] = Precipitate in diluted peptide stock prior to adding to the fat cell assay; solubility under assay conditions; type: physicochemical; conditions: diluted stock prior to adding to assay

## CC(C)C[C@H](NC(=O)[C@H](Cc1c[nH]c2ccccc12)NC(=O)[C@@H](N)CCCCN)C(=O)N[C@@H](CC(=O)O)C(=O)N[C@@H](CCC(N)=O)C(=O)N[C@@H](CCC(=O)O)C(=O)N[C@@H](Cc1c[nH]c2ccccc12)C(=O)N[C@@H](C)C(=O)N[C@@H](Cc1c[nH]c2ccccc12)C(=O)N[C@H](C(=O)N[C@@H](CCC(N)=O)C(=O)N[C@H]1CSSC[C@@H](C(=O)N2CCC[C@H]2C(=O)N[C@@H](CO)C(=O)N[C@@H](CCCCN)C(=O)N[C@@H](CCCCNC(=O)CCCC[C@@H]2SC[C@@H]3NC(=O)N[C@@H]32)C(N)=O)NC(=O)CNC(=O)[C@H](CCCNC(=N)N)NC(=O)CNC(=O)[C@H](Cc2ccc(O)cc2)NC(=O)[C@H](C(C)C)NC(=O)[C@H](CCC(=O)O)NC1=O)C(C)C [Clone D8] (H-KWLDQEWAWVQCEVYGRGCPSKK(Biotin)-NH2; disulfide 12-19 (inferred); N-terminus assumed)
[1]
  Absorbance Values IR: 1.42
[2]
  Autophosph. Blot: 0
[3]
  Result (RUs): 41.6 RUs
[4]
  effect on dissociation rate of 20E2 from IGF-1R: much slower dissociation rate
[5]
  Resp.: -1
[6]
  Absorbance Values sIGF-1R: 2.19
[7]
  Comments (precipitation): Precipitates
